Source: patent US20030017976A1, “Therapeutic properties of liposome-encapsulated immunomodulators” (priority 1998, published 2003)
Marks after values point to notes of the source that are not given here.

Key:
human monocytes = experiment: Western blot of tyrosine phosphorylation, JNK1 band shift, MAP kinase activation in monocytes; assay type: cell-based; details: 20 min
Method: After two washes with PBS containing 1 mM Na3 VO4 and 5 mM EDTA, the cells were scraped into 0.1 ml lysis buffer (1% Triton X-100, 20 mM Tris pH 8.0, 137 MM NaCl, 10% glycerol, 1 mM Na3 VO4, 2 mM EDTA, 1 mM PMSF, 20 μM leupeptin, 0.15 U/ml aprotinin). The lysate was placed on ice for 20 min and then centrifuged at 14,000 rpm for 10 min at 4° C. The samples (50 μg) were mixed with sample buffer (62.5 mM Tris/HCl, pH 6.8, 2.3% SDS, 100 mM DTT, and 0.05% bromophenol blue), boiled and, separated on 10% SDS-PAGE. The protein was then transferred onto 0.45 μm nitrocellulose membranes. The filter was blocked with 3% BSA and 1% ovalbumin (ICN Biomedicals, Inc.) in TBS (20 mM Tris/HCl, pH 7.5, 150 mM NaCl), probed with antibodies as indicated in the Results in TTBS (TBS containing 0.1% Tween 20), incubated with a second antibody in the buffer, and visualized by the ECL Western blotting detection system (Dong, Z., et al. J Exp. Med. (1993) 177:1071; Dong, Z. et al. J. Leukoc. Biol. (1993) 58:725).

CT-26P colon carcinoma = experiment: Combination therapy of CT-26P colon carcinoma with CPT-11 and oral liposomal JBT3002; assay type: in vivo, mouse; details: day 17
Method: This course of therapy was repeated weekly for about three weeks prior to tissue harvest. Experimental Groups/Procedures: 40 Balb/c mice were divided into 8 groups of 5 mice each. On day 0, the spleens of the mice were injected with 15,000 cultured CT-26P cells. The groups were then treated as follows: The spleens of Balb/c mice were injected with 15,000 cultured CT-26P colon carcinoma cells on day 0. […] Treated mice received two weeks of chemotherapy and three weeks of the macrophage activator. Tissues were harvested on day 17. The spleens and livers were weighed, the extent of metastasis was graded (denoted below) and histology prepared.

TG-Mø from C57BL/6 mice = experiment: NO production in TG macrophages by free-form and tablet JBT 3002; assay type: cell-based, mouse; details: 24 hr
Method: Preparation of tablet to free-form in water. Tablet placed in 10 ml sterile, pyrogen-free water for 2-3 min with shaking at room temperature, then 10 ml more water added using Lot PCOO2.115. At 100 μg/tablet, this gave 5 ug/ml active material. Solution opaque with “carrier”-appearing material. Settled to bottom. Placed at 37° C. for about 5 min. pH tested at 8.0. Two aliquots of 10 ml taken. One aliquot was taken to pH 1.5 by a single drop of concentrated HCl. Both samples were placed in a water bath at 37° C. for 30 min. The low pH sample was restored to pH 7.7 with NaOH (took about 5 drops of the NaOH, IN solution). The samples were brought to 50 ml by addition of water, and the final pH was 8.0 for the original and 7.43 for the low pH sample. The solutions were still slightly opaque and filtering with a 0.2 micron filter cleared the solution. Aliquots of about 25 ml were measured in an assay for NO production by macrophages and testing of the working dilution for endotoxin.

IL-15 = experiment: Ileum and liver lesion histology, BrdUrd and IL-15 expression after JBT 3002 and CPT-11; assay type: in vivo, mouse; details: mouse, in vivo
Method: BALB/c mice were injected with CT-26 colon cancer cells into the spleen. […] Four days after the last injection of CPT-11, some mice were killed and their ileum was harvested and prepared for histology, immunohistochemistry, and molecular biology analyses.

tumor cells = experiment: Macrophage-mediated tumor cytotoxicity, target cells not named; assay type: cell-based; details: available in MLV to 1×10^5 cells
Method: Cytotoxicity was assayed by measuring release of radioactivity from target cell DNA as described previously (Dong Z, et al. J Exp Med (1993) 177:1071-7). Briefly, tumor target cells in their exponential growth phase were incubated in medium containing 0.25 μCi/ml of [^3H]TdR (sp. Act. 2 Ci/mmol) (ICN Biomedicals, Inc., Irvine, Calif.) for 24 h. The cells were washed three times with HBSS to remove unbound radioactivity and then harvested by trypsinization (0.25% trypsin in 0.02% EDTA), washed, and resuspended in medium. Cells were plated (at 1×10^4/well) into wells containing control or test macrophages to achieve an E/T cell ratio of 10:1. At this density, macrophages incubated in medium (control) were not cytotoxic to neoplastic cells (Weinstein SL, et al. Proc Natl Acad Sci USA (1991) 88:4148-52; Dong Z, et al. JLeukoc Biol (1993) 53:53-60). […] The lysate was harvested with harvester 96 (Tomtec, Orange, Conn.) and counted for residual radioactivity in a liquid scintillation counter. Macrophage-mediated cytotoxicity was calculated as follows: […]
Efficient activation of macrophages by LPS requires priming by IFN-γ (Saiki I, et al. J Immunol (1985) 135:684-8). […] Tumor cytotoxicity was measured 72 h after the addition of radiolabeled tumor cells to the activated macrophages. […]

N-hexadecanol-S-[2(R)-3-diodecanoyloxypropyl]-L-cysteinyl-L-alanyl-D-isoglutaminyl-glycyl-taurine sodium salt [JBT3002]
potency in triggering intracellular signaling pathways (human monocytes): significantly more potent than LPS | Spleen Weights, mean (CT-26P colon carcinoma; oral JBT3002 1 μg/dose in PC liposomes 3x/week alone): 1.137 ± 0.628 grams | Liver Weights, mean (CT-26P colon carcinoma; oral liposomal JBT3002 1 μg/dose 3x/week alone): 1.842 ± 0.498 grams | nitrite (TG-Mø from C57BL/6 mice; Table 17, JBT 0.003 ng/ml, IFN-γ (10 U/ml)): 17.5 µM | nitrite (TG-Mø from C57BL/6 mice; Table 17, JBT 0.003 ng/ml, medium): 0 µM | nitrite (TG-Mø from C57BL/6 mice; Table 17, JBT 0.016 ng/ml, IFN-γ (10 U/ml)): 33.7 µM | nitrite (TG-Mø from C57BL/6 mice; Table 17, JBT 0.016 ng/ml, medium): 0 µM | nitrite (TG-Mø from C57BL/6 mice; Table 17, JBT 0.08 ng/ml, IFN-γ (10 U/ml)): 41 µM | nitrite (TG-Mø from C57BL/6 mice; Table 17, JBT 0.08 ng/ml, medium): 0 µM | nitrite (TG-Mø from C57BL/6 mice; Table 17, JBT 0.4 ng/ml, IFN-γ (10 U/ml)): 44.7 µM | nitrite (TG-Mø from C57BL/6 mice; Table 17, JBT 0.4 ng/ml, medium): 0 µM | nitrite (TG-Mø from C57BL/6 mice; Table 17, JBT 2 ng/ml, IFN-γ (10 U/ml)): 53.1 µM | nitrite (TG-Mø from C57BL/6 mice; Table 17, JBT 2 ng/ml, medium): 0 µM | nitrite (TG-Mø from C57BL/6 mice; Table 17, JBT 10 ng/ml, IFN-γ (10 U/ml)): 60.9* μM | nitrite (TG-Mø from C57BL/6 mice; Table 17, JBT 10 ng/ml, medium): 8.4 µM | nitrite (TG-Mø from C57BL/6 mice; Table 18, JBT3002 0.0001 ng/ml, 10 U/ml IFN-γ): 0 | nitrite (TG-Mø from C57BL/6 mice; Table 18, JBT3002 0.0001 ng/ml, medium): 0 | nitrite (TG-Mø from C57BL/6 mice; Table 18, JBT3002 0.001 ng/ml, 10 U/ml IFN-γ): 8.5 | nitrite (TG-Mø from C57BL/6 mice; Table 18, JBT3002 0.001 ng/ml, medium): 0 | nitrite (TG-Mø from C57BL/6 mice; Table 18, JBT3002 0.01 ng/ml, 10 U/ml IFN-γ): 19.5 | nitrite (TG-Mø from C57BL/6 mice; Table 18, JBT3002 0.01 ng/ml, medium): 0 | nitrite (TG-Mø from C57BL/6 mice; Table 18, JBT3002 0.1 ng/ml, 10 U/ml IFN-γ): 27.7 | nitrite (TG-Mø from C57BL/6 mice; Table 18, JBT3002 0.1 ng/ml, medium): 0 | nitrite (TG-Mø from C57BL/6 mice; Table 18, JBT3002 1 ng/ml, 10 U/ml IFN-γ): 37.7 | nitrite (TG-Mø from C57BL/6 mice; Table 18, JBT3002 1 ng/ml, medium): 0 | nitrite (TG-Mø from C57BL/6 mice; Table 18, JBT3002 10 ng/ml, 10 U/ml IFN-γ): 47.1 | nitrite (TG-Mø from C57BL/6 mice; Table 18, JBT3002 10 ng/ml, medium): 0.5 | expression of IL-15 in the ileum (IL-15): restores or augments this expression | minimal concentration of JBT3002 for significant activation of tumoricidal properties in PEM (tumor cells): 1.5 ng
